{"source": "patent US20170121344A1", "about": "(Siga Technologies, Inc., priority 2009, published 2017)", "test_system": "Dengue-2 (Strain New Guinea C)", "assay": "Viral yield assay against Dengue-2 in Vero cells", "format": "cell-based, Dengue virus", "conditions": "Dengue virus", "in_short": "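Progeny virus from compound-treated Vero monolayers infected at an MOI of 0.1 is collected after 48 h at 37° C and titered on Vero cells. DMSO serves as control.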", "key": {"[1]": {"conditions": "Vero cells, MOI 0.1, harvested 48 hours post infection, read-out: Activity (EC50 class) against Dengue-2 Virus in Vero cells"}, "[2]": {"conditions": "DENV2, viral yield assay, Vero cells, MOI 0.1, 48 hours post infection, read-out: Activity (EC50 in μM) DENV-2"}, "[3]": {"conditions": "Vero, 48 h, read-out: Activity (EC50 class) against Dengue-2 Virus in Vero cells"}}, "note": "Where a name gives a salt, the structure may show the parent alone. Read-outs that look alike come from different tables or passages of the source."}
{"smiles": "N#Cc1cc2c(N)c(C(=O)Nc3ccccc3C(F)(F)F)sc2nc1N", "note": "[Compound 130, 3,6-Diamino-5-cyano-thieno[2,3-b]pyridine-2-carboxylic acid (2-trifluoromethyl-phenyl)-amide]", "values": [{"measurement": "EC50", "setting": "[1]", "value": "> 25", "unit": "µM"}]}
{"smiles": "CCOc1ccccc1NC(=O)c1sc2nc(-c3ccc4c(c3)OCO4)ccc2c1N", "note": "[Compound 517, 3-amino-6-(1,3-benzodioxol-5-yl)-N-(2-ethoxyphenyl)thieno[2,3-b]pyridine-2-carboxamide]", "values": [{"measurement": "EC50", "setting": "[2]", "value": "< 5", "unit": "µM"}]}
{"smiles": "CC1(C)Cc2nc3sc4c(=O)n(Cc5ccc(Cl)cc5Cl)cnc4c3cc2CO1", "note": "[Compound 252, 2-(2,4-Dichloro-benzyl)-8,8-dimethyl-8,9-dihydro-2H,6H-7-oxa-11-thia-2,4,10-triaza-benzo[b]fluoren-1-one]", "values": [{"measurement": "EC50", "setting": "[1]", "value": "> 25", "unit": "µM"}]}
{"smiles": "Nc1c(C(=O)Nc2ccccc2)sc2nc(-c3ccccc3)cc(-c3ccccc3)c12", "note": "[Compound 66, 3-Amino-4,6-diphenyl-thieno[2,3-b]pyridine-2-carboxylic acid phenylamide]", "values": [{"measurement": "EC50", "setting": "[1]", "value": "5 to 25", "unit": "µM"}]}
{"smiles": "CC1(C)Cc2c(c(N3CCOCC3)nc3sc4c(c23)N2C(=O)CCC2(C)NC4=O)CO1", "note": "(stereo not shown) [Compound 248, 2,2,9a-Trimethyl-5-(4-morpholinyl)-1,4,9,9a,10,11-hexahydro-2H-pyrano[4″,3″:4′,5′]pyrido[3′,2′:4, 5]thieno[2,3-e]pyrrolo[1,2-a]pyrimidine-8,12-dione]", "values": [{"measurement": "EC50", "setting": "[1]", "value": "> 25", "unit": "µM"}]}
{"smiles": "COc1cccc(-c2ccc3c(N)c(C(=O)Nc4cc(F)ccc4C)sc3n2)c1", "note": "[Compound 565, 3-amino-N-(5-fluoro-2-methyl-phenyl)-6-(3-methoxyphenyl)thieno[2,3-b] pyridine-2-carboxamide]", "values": [{"measurement": "EC50", "setting": "[2]", "value": "< 5", "unit": "µM"}]}
{"smiles": "Nc1c(C(=O)Nc2nc3ccccc3s2)sc2nc(-c3cccs3)ccc12", "note": "[Compound 436, 3-amino-N-(1,3-benzothiaozl-2-yl)-6-(2-thienyl)thieno[2,3-b]pyridine-2-carboxamide]", "values": [{"measurement": "EC50", "setting": "DENV2, Vero, 48 h, read-out: Activity (EC50 in μM) DENV-2", "value": "< 5", "unit": "µM"}]}
{"smiles": "COc1ccc(-c2ccc3c(N)c(C(=O)Nc4ccc(Br)cc4C)sc3n2)cc1OC", "note": "[Compound 578, 3-amino-N-(4-bromo-2-methyl-phenyl)-6-(3,4-dimethoxyphenyl)thieno[2,3-b] pyridine-2-carboxamide]", "values": [{"measurement": "EC50", "setting": "[2]", "value": "< 5", "unit": "µM"}]}
{"smiles": "Nc1c(C(=O)Nc2ccc(F)cc2)sc2nc3c(cc12)CCCCC3", "note": "[Compound 116, 3-Amino-6,7,8,9-tetrahydro-5H-1-thia-10-aza-cyclohepta[f]indene-2-carboxylic acid (4-fluoro-phenyl)-amide]", "values": [{"measurement": "EC50", "setting": "[3]", "value": "> 25", "unit": "µM"}]}
{"smiles": "COc1cccc(-c2ccc3c(N)c(C(=O)Nc4cc(OC)ccc4Cl)sc3n2)c1", "note": "[Compound 548, 3-amino-N-(2-chloro-5-methoxy-phenyl)-6-(3-methoxyphenyl)thieno[2,3-b] pyridine-2-carboxamide]", "values": [{"measurement": "EC50", "setting": "[2]", "value": "< 5", "unit": "µM"}]}
{"smiles": "Cc1sc(NC(=O)c2sc3nc4c(cc3c2N)CN(C)CC4)c(C#N)c1C", "note": "[Compound 114, 3-Amino-6-methyl-5,6,7,8-tetrahydro-thieno[2,3-b][1,6]naphthyridine-2-carboxylic acid (3-cyano-4,5-dimethyl-thiophen-2-yl)-amide]", "values": [{"measurement": "EC50", "setting": "[1]", "value": "5 to 25", "unit": "µM"}]}
{"smiles": "Nc1c(C(=O)Nc2nnc(-c3ccccc3)s2)sc2nc3c(cc12)CNCCC3", "note": "[Compound 52, 3-Amino-6,7,8,9-tetrahydro-5H-1-thia-6,10-diaza-cyclohepta[f]indene-2-carboxylic acid (5-phenyl-[1,3,4]thiadiazol-2-yl)-amide hydrochloride]", "values": [{"measurement": "EC50", "setting": "[1]", "value": "< 5", "unit": "µM"}]}
{"smiles": "CC1(C)CC(=O)c2cc3c(N)c(C(=O)Nc4ccc5c(c4)OCO5)sc3nc2C1", "note": "[Compound 226, 3-Amino-7,7-dimethyl-5-oxo-5,6,7,8-tetrahydro-thieno[2,3-b]quinoline-2-carboxylic acid benzo[1,3]dioxol-5-ylamide]", "values": [{"measurement": "EC50", "setting": "[1]", "value": "> 25", "unit": "µM"}]}
{"smiles": "O=c1[nH]c2c(sc3nc(-c4cccs4)ccc32)c(=O)n1-c1cccc(C(F)(F)F)c1", "note": "[Compound 316, 7-(thiophen-2-yl)-3-(3-(trifluoromethyl)phenyl)pyrido[3′,2′:4,5]thieno[3,2-d]pyrimidine-2,4(1H,3H)-dione]", "values": [{"measurement": "EC50", "setting": "[2]", "value": "< 5", "unit": "µM"}]}
{"smiles": "Cc1c(C(=O)NC(C)(C)C)sc2nc(-c3cccs3)cc(C(F)(F)F)c12", "note": "[Compound 388, N-tert-butyl-3-methyl-6-(2-thienyl)-4-(trifluoromethyl)thieno[2,3-b]pyridine-2-carboxamide]", "values": [{"measurement": "EC50", "setting": "[2]", "value": "< 5", "unit": "µM"}]}
{"smiles": "O=C(Nc1cccc(Cl)c1)c1sc2ncccc2c1OCc1ccc(Cl)c(Cl)c1", "note": "[Compound 380, N-(3-chlorophenyl)-3-[(3,4-dichlorophenyl)methoxy]thieno[2,3-b] pyridine-2-carboxamide]", "values": [{"measurement": "EC50", "setting": "[2]", "value": "< 5", "unit": "µM"}]}
{"smiles": "Cc1c(C(=O)N(C)C2CCCC(C)C2)sc2nc(C(F)(F)F)ccc12", "note": "(stereo not shown) [Compound 399, N,3-dimethyl-N-(3-methylcyclohexyl)-6-(trifluoromethyl)thieno[2,3-b]pyridine-2-carboxamide]", "values": [{"measurement": "EC50", "setting": "[2]", "value": "< 5", "unit": "µM"}]}
{"smiles": "Nc1c(C(=O)Nc2ccc(Br)cc2)sc2ncccc12", "note": "[Compound 423, 3-amino-N-(4-bromophenyl)thieno[2,3-b] pyridine-2-carboxamide]", "values": [{"measurement": "EC50", "setting": "[2]", "value": "< 5", "unit": "µM"}]}
{"smiles": "COc1cccc(-c2ccc3c(N)c(C(=O)Nc4cc(C(F)(F)F)ccc4Cl)sc3n2)c1", "note": "[Compound 560, 3-amino-N-[2-chloro-5-(trifluoromethyl)phenyl]-6-(3-methoxyphenyl)thieno [2,3-b]pyridine-2-carboxamide]", "values": [{"measurement": "EC50", "setting": "[2]", "value": "< 5", "unit": "µM"}]}
{"smiles": "CCN(CC)C(=O)c1sc2nc3c(cc2c1N)CCC3", "note": "[Compound 138, 3-Amino-6,7-dihydro-5H-cyclopenta[b]thieno[3,2-e]pyridine-2-carboxylic acid diethylamide]", "values": [{"measurement": "EC50", "setting": "[3]", "value": "> 25", "unit": "µM"}]}
{"smiles": "COc1ccc(Cl)c(NC(=O)c2sc3nc(-c4ccc5c(c4)OCO5)ccc3c2N)c1", "note": "[Compound 589, 3-amino-6-(1,3-benzodioxol-5-yl)-N-(2-chloro-5-methoxy-phenyl)thieno[2,3-b] pyridine-2-carboxamide]", "values": [{"measurement": "EC50", "setting": "[2]", "value": "< 5", "unit": "µM"}]}
{"smiles": "COc1cc(NC(=O)c2sc3nc(C)cc(C)c3c2C)cc(OC)c1OC", "note": "[Compound 401, 3,4,6-trimethyl-N-(3,4,5-trimethoxyphenyl)thieno[2,3-b]pyridine-2-carboxamide]", "values": [{"measurement": "EC50", "setting": "[2]", "value": "> 25", "unit": "µM"}]}
{"smiles": "CN(C)c1ccnc2sc3c(=O)n(-c4ccccc4)cnc3c12", "note": "[Compound 159, 9-Dimethylamino-3-phenyl-3H-pyrido[3′,2′:4,5]thieno[3,2-d]pyrimidin-4-one]", "values": [{"measurement": "EC50", "setting": "[3]", "value": "> 25", "unit": "µM"}]}
{"smiles": "NC(=O)c1sc2nc(-c3ccccc3)ccc2c1N", "note": "[Compound 161, 3-Amino-6-phenyl-thieno[2,3-b]pyridine-2-carboxylic acid amide]", "values": [{"measurement": "EC50", "setting": "[1]", "value": "> 25", "unit": "µM"}]}
{"smiles": "Nc1c(C(=O)Nc2ccccc2)sc2nc3c(cc12)CCC3", "note": "[Compound 173, 3-Amino-6,7-dihydro-5H-cyclopenta[b]thieno[3,2-e]pyridine-2-carboxylic acid phenylamide]", "values": [{"measurement": "EC50", "setting": "[1]", "value": "> 25", "unit": "µM"}]}
{"smiles": "CCCCOc1ccc(NC(=O)c2sc3nc(N)c(C#N)cc3c2N)cc1", "note": "[Compound 70, 3,6-Diamino-5-cyano-thieno[2,3-b]pyridine-2-carboxylic acid (4-butoxy-phenyl)-amide]", "values": [{"measurement": "EC50", "setting": "[3]", "value": "5 to 25", "unit": "µM"}]}
{"smiles": "CC1(C)Cc2nc3sc4c(=O)[nH]cnc4c3cc2CS1", "note": "[Compound 232, 8,8-Dimethyl-8,9-dihydro-2H,6H-7,11-dithia-2,4,10-triaza-benzo[b]fluoren-1-one]", "values": [{"measurement": "EC50", "setting": "[3]", "value": "> 25", "unit": "µM"}]}
{"smiles": "CCCCN(CCCC)C(=O)c1sc2nc(N3CCOCC3)c3c(c2c1N)CC(C)(C)OC3", "note": "[Compound 246, 1-Amino-8,8-dimethyl-5-morpholin-4-yl-8,9-dihydro-6H-7-oxa-3-thia-4-aza-cyclopenta[a]naphthalene-2-carboxylic acid dibutylamide]", "values": [{"measurement": "EC50", "setting": "[1]", "value": "> 25", "unit": "µM"}]}
{"smiles": "CCOC(=O)c1ccc(NC(=O)c2sc3nc4c(cc3c2N)CN(C(C)C)CC4)cc1", "note": "[Compound 25, 4-[(3-Amino-6-isopropyl-5,6,7,8-tetrahydro-thieno[2,3-b][1,6]naphthyridine-2-carbonyl)-amino]-benzoic acid ethyl ester]", "values": [{"measurement": "EC50", "setting": "[1]", "value": "< 5", "unit": "µM"}]}
{"smiles": "COc1cccc(-c2ccc3c(N)c(C(=O)Nc4ccc5c(c4)OCO5)sc3n2)c1", "note": "[Compound 511, 3-amino-N-(1,3-benzodioxol-5-yl)-6-(3-methoxyphenyl)thieno[2,3-b]pyridine-2-carboxamide]", "values": [{"measurement": "EC50", "setting": "[2]", "value": "< 5", "unit": "µM"}]}
{"smiles": "COc1ccccc1NC(=O)c1sc2nc(N3CCOCC3)cc(-c3ccccc3)c2c1O", "note": "[Compound 385, 3-hydroxy-N-(2-methoxyphenyl)-6-morpholino-4-phenyl-thieno[2,3-b] pyridine-2-carboxamide]", "values": [{"measurement": "EC50", "setting": "[2]", "value": "5 to 25", "unit": "µM"}]}
{"smiles": "Cc1cc(C)c2c(C)c(C(=O)N3CCN(c4cnccn4)CC3)sc2n1", "note": "[Compound 404]", "values": [{"measurement": "EC50", "setting": "[2]", "value": "< 5", "unit": "µM"}]}
{"smiles": "Nc1c(C(=O)Nc2ccc(F)c(Cl)c2)sc2nc(-c3ccc(F)cc3)ccc12", "note": "[Compound 613, 3-amino-N-(3-chloro-4-fluoro-phenyl)-6-(4-fluorophenyl)thieno[2,3-b]pyridine-2-carboxamide]", "values": [{"measurement": "EC50", "setting": "[2]", "value": "< 5", "unit": "µM"}]}
{"smiles": "COc1cccc(-c2ccc3c(N)c(C(=O)Nc4ccc(Cl)cc4Cl)sc3n2)c1", "note": "[Compound 545, 3-amino-N-(2,4-dichlorophenyl)-6-(3-methoxyphenyl)thieno[2,3-b]pyridine-2-carboxamide]", "values": [{"measurement": "EC50", "setting": "[2]", "value": "< 5", "unit": "µM"}]}
{"smiles": "NC(=O)c1sc2nc(N3CCOCC3)c3c(c2c1N)CCCC3", "note": "[Compound 171, 1-Amino-5-morpholin-4-yl-6,7,8,9-tetrahydro-thieno[2,3-c]isoquinoline-2-carboxylic acid amide]", "values": [{"measurement": "EC50", "setting": "[3]", "value": "> 25", "unit": "µM"}]}
{"smiles": "Cc1cc(C)c2c(C)c(C(=O)NC(C)C3CC3)sc2n1", "note": "(stereo not shown) [Compound 394, N-(1-cyclopropylethyl)-3,4,6-trimethyl-thieno[2,3-b]pyridine-2-carboxamide]", "values": [{"measurement": "EC50", "setting": "[2]", "value": "< 5", "unit": "µM"}]}
{"smiles": "Cc1csc(NC(=O)c2sc3nc4c(cc3c2N)CN(C)CC4)n1", "note": "[Compound 39, 3-Amino-6-methyl-5,6,7,8-tetrahydro-thieno[2,3-b][1,6]naphthyridine-2-carboxylic acid (4-methyl-thiazol-2-yl)-amide]", "values": [{"measurement": "EC50", "setting": "[1]", "value": "< 5", "unit": "µM"}]}
